Tested on: human adult primary fibroblast cells
Test: Cell count and viability of samples after thawing (Tripan-Blue exclusion)
Format: cell-based
Experimental: Sample Preparation and HT Q-FISH: On processing day, the samples and control cell lines frozen in liquid nitrogen are thawed at 37° C. and cell counts and cellular viability are determined. Aliquots with viability lower than 60% are considered below our QC standards and are not further analyzed. Cells are seeded in clear bottom black-walled 384-well plates at 15,000 cells per well in 5 replicates for each sample and 8 replicates for each control cell line. Cell count: An automated cell counter is used to determine the total number of cells in the vials. A minimum of 100.000 cells are needed to perform TAT. Cell viability by Tripan-Blue exclusion method. The exclusion criteria currently in place will reject aliquots with less than 60% viable cells.

## CC1=C[C@H](O)CC(C)(C)[C@H]1/C=C/C(C)=C/C=C/C(C)=C/C=C/C=C(C)/C=C/C=C(C)/C=C/C1=C(C)C[C@@H](O)CC1(C)C [Lutein]
Lutein 1 μg/ml + 10 μM H2O2, week 4 (P4)
  Viability of sample after thawing: 87%
Lutein 1 μg/ml + 10 μM H2O2, week 8 (P8)
  Viability of sample after thawing: 87%
Lutein 1 μg/ml, standard culture, week 4 (P4)
  Viability of sample after thawing: 80%
Lutein 1 μg/ml, standard culture, week 8 (P8)
  Viability of sample after thawing: 91%
Lutein 5 μg/ml + 10 μM H2O2, week 4 (P4)
  Viability of sample after thawing: 81%
Lutein 5 μg/ml + 10 μM H2O2, week 8 (P8)
  Viability of sample after thawing: 76%
Lutein 5 μg/ml, standard culture, week 4 (P4)
  Viability of sample after thawing: 96%
Lutein 5 μg/ml, standard culture, week 8 (P8)
  Viability of sample after thawing: 91%
Lutein 10 μg/ml + 10 μM H2O2, week 4 (P4)
  Viability of sample after thawing: 96%
Lutein 10 μg/ml + 10 μM H2O2, week 8 (P8)
  Viability of sample after thawing: 92%
Lutein 10 μg/ml, standard culture, week 4 (P4)
  Viability of sample after thawing: 96%
Lutein 10 μg/ml, standard culture, week 8 (P8)
  Viability of sample after thawing: 87%

Reference: patent US20220175693A1, “DIETARY SUPPLEMENT COMPRISING LUTEIN FOR TELOMERE PROTECTION, AND METHOD FOR PRODUCTION THEREOF” (BIOGEN EXTRACTS PRIVATE LIMITED, priority 2019, published 2022)
